“And” between values parts separate entries of the source, which are not always exact repeats. Identical values can stand only once. Toxic doses and inconclusive results are not listed. No stated cut-off is given here; in the data, active means T/C of 150% or more; inactive means T/C below 125%.
System: L1210 leukemia ip in BDF1 mice, survival T/C
Assay: NCI In Vivo Anticancer Drug Screen. Data for tumor model L1210 Leukemia (intraperitoneal) in B6D2F1 (BDF1) mice
Details: endpoint: mean survival time, higher = longer survival
Method in brief: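 Antitumor effect is assessed in tumor-bearing animals. Survival in the compound arm is compared with a vehicle-dosed control arm and expressed as their quotient.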

[1] = dose: 50.0 mg/kg/injection, schedule: Q04DX003 (ip), vehicle: saline
[2] = dose: 100.0 mg/kg/injection, schedule: Q01DX001 (ip), vehicle: saline
[3] = dose: 200.0 mg/kg/injection, schedule: Q01DX001 (ip), vehicle: saline
[4] = dose: 400.0 mg/kg/injection, schedule: Q01DX001 (ip), vehicle: saline
[5] = dose: 50.0 mg/kg/injection, schedule: Q01DX009 (ip), vehicle: saline with Tween-80
[6] = dose: 100.0 mg/kg/injection, schedule: Q04DX003 (ip), vehicle: saline with Tween-80
[7] = dose: 200.0 mg/kg/injection, schedule: Q04DX003 (ip), vehicle: saline with Tween-80
[8] = dose: 100.0 mg/kg/injection, schedule: Q04DX003 (ip), vehicle: other
[9] = dose: 200.0 mg/kg/injection, schedule: Q04DX003 (ip), vehicle: other
[10] = dose: 400.0 mg/kg/injection, schedule: Q04DX003 (ip), vehicle: other
[11] = dose: 100.0 mg/kg/injection, schedule: Q01DX009 (ip), vehicle: saline with Tween-80
[12] = dose: 200.0 mg/kg/injection, schedule: Q01DX009 (ip), vehicle: saline with Tween-80
[13] = dose: 100.0 mg/kg/injection, schedule: Q01DX009 (ip), vehicle: Klucel (hydroxypropylcellulose) (HPC)
[14] = dose: 200.0 mg/kg/injection, schedule: Q01DX009 (ip), vehicle: Klucel (hydroxypropylcellulose) (HPC)
[15] = dose: 400.0 mg/kg/injection, schedule: Q01DX009 (ip), vehicle: Klucel (hydroxypropylcellulose) (HPC)
[16] = dose: 50.0 mg/kg/injection, schedule: Q01DX009 (ip), vehicle: saline
[17] = dose: 100.0 mg/kg/injection, schedule: Q04DX003 (ip), vehicle: saline
[18] = dose: 200.0 mg/kg/injection, schedule: Q04DX003 (ip), vehicle: saline
[19] = dose: 400.0 mg/kg/injection, schedule: Q04DX003 (ip), vehicle: saline with Tween-80
[20] = dose: 400.0 mg/kg/injection, schedule: Q04DX003 (ip), vehicle: saline
[21] = dose: 100.0 mg/kg/injection, schedule: Q04DX003 (ip), vehicle: Klucel (hydroxypropylcellulose) (HPC)
[22] = dose: 200.0 mg/kg/injection, schedule: Q04DX003 (ip), vehicle: Klucel (hydroxypropylcellulose) (HPC)
[23] = dose: 400.0 mg/kg/injection, schedule: Q04DX003 (ip), vehicle: Klucel (hydroxypropylcellulose) (HPC)

Measured: T/C

Cc1cc(Cl)nc(Nc2nc3cc(Cl)c(Cl)cc3[nH]2)n1
inactive: dose: 12.5 mg/kg/injection, schedule: Q01DX009 (ip), vehicle: acetone 87 % of control and 92 % of control | dose: 12.5 mg/kg/injection, schedule: Q04DX003 (ip), vehicle: saline 95 % of control and 112 % of control | dose: 25.0 mg/kg/injection, schedule: Q01DX009 (ip), vehicle: acetone 87 % of control | dose: 25.0 mg/kg/injection, schedule: Q04DX003 (ip), vehicle: saline 94 % of control and 95 % of control | dose: 50.0 mg/kg/injection, schedule: Q01DX009 (ip), vehicle: acetone 88 % of control | [1] 94 % of control and 101 % of control | [2] 91 % of control | [3] 93 % of control | [4] 91 % of control

CON(C)c1nc2ccccc2o1
inactive: dose: 50.0 mg/kg/injection, schedule: Q01DX001 (ip), vehicle: saline 103 % of control | [2] 100 % of control | [3] 100 % of control | [4] 100 % of control

CC(=O)c1cccc([N+](=O)[O-])c1O
inactive: [2] 95 % of control | [3] 94 % of control | [4] 91 % of control

NC(=O)C(NC(=O)Nc1ccccc1)C(N)=O
inactive: dose: 12.5 mg/kg/injection, schedule: Q04DX003 (ip), vehicle: gum acacia 100 % of control | dose: 25.0 mg/kg/injection, schedule: Q04DX003 (ip), vehicle: gum acacia 97 % of control | dose: 50.0 mg/kg/injection, schedule: Q04DX003 (ip), vehicle: gum acacia 92 % of control | dose: 100.0 mg/kg/injection, schedule: Q04DX003 (ip), vehicle: gum acacia 98 % of control

CC(C)(C)c1ccc(N)cc1Br
inactive: dose: 12.5 mg/kg/injection, schedule: Q01DX009 (ip), vehicle: saline with Tween-80 95 % of control | dose: 25.0 mg/kg/injection, schedule: Q01DX009 (ip), vehicle: saline with Tween-80 93 % of control | [5] 97 % of control | [6] 92 % of control | [7] 96 % of control

CC(Br)C(Br)(C(=O)O)c1ccccc1 (configuration not stated)
inactive: [8] 91 % of control | [9] 95 % of control | [10] 96 % of control

CN(C)c1ccc(/C=N/NC(=O)CNC(=O)Nc2nccs2)c(Cl)c1
inactive: [5] 100 % of control | [11] 89 % of control | [12] 89 % of control

N#Cc1c(N)nc2ccccc2[n+]1[O-]
inactive: dose: 50.0 mg/kg/injection, schedule: Q01DX009 (ip), vehicle: Klucel (hydroxypropylcellulose) (HPC) 94 % of control | [13] 97 % of control | [14] 100 % of control

Clc1ccc2nc(-c3ccc(Cl)c(Cl)c3)cc(-c3ccccc3)c2c1
inactive: [13] 94 % of control | [14] 86 % of control | [15] 97 % of control

C=CCn1cnc(=N)c2[nH]cnc21
inactive: [16] 94 % of control | dose: 100.0 mg/kg/injection, schedule: Q01DX009 (ip), vehicle: saline 87 % of control | [17] 90 % of control | dose: 200.0 mg/kg/injection, schedule: Q01DX009 (ip), vehicle: saline 93 % of control | [18] 94 % of control

CCN(CC)C(=O)Cn1cc(F)c(=O)[nH]c1=O
inactive: [6] 98 % of control | [17] 104 % of control | [7] 101 % of control | [18] 104 % of control | [19] 106 % of control | [20] 98 % of control

CN(C)C(=O)c1cc(NC(=O)c2ccc(C(=O)Nc3cc(C(=O)N(C)C)cc(C4=NCCN4)c3)cc2)cc(C2=NCCN2)c1
inactive: dose: 7.5 mg/kg/injection, schedule: Q01DX015 (ip), vehicle: methylcellulose (MC) 98 % of control | dose: 15.0 mg/kg/injection, schedule: Q01DX015 (ip), vehicle: methylcellulose (MC) 98 % of control and 108 % of control | dose: 60.0 mg/kg/injection, schedule: Q01DX015 (ip), vehicle: methylcellulose (MC) 98 % of control

Nc1ccc([N+](=O)[O-])cc1[N+](=O)[O-]
inactive: dose: 25.0 mg/kg/injection, schedule: Q04DX003 (ip), vehicle: Klucel (hydroxypropylcellulose) (HPC) 103 % of control | dose: 50.0 mg/kg/injection, schedule: Q04DX003 (ip), vehicle: Klucel (hydroxypropylcellulose) (HPC) 98 % of control | [21] 95 % of control and 105 % of control

COc1ccc2c(=O)c(C)c(C)oc2c1CN1CCOCC1
inactive: dose: 0.78 mg/kg/injection, schedule: Q01DX009 (ip), vehicle: saline 94 % of control | dose: 1.56 mg/kg/injection, schedule: Q01DX009 (ip), vehicle: saline 98 % of control | dose: 3.12 mg/kg/injection, schedule: Q01DX009 (ip), vehicle: saline 107 % of control | dose: 6.25 mg/kg/injection, schedule: Q01DX009 (ip), vehicle: saline 100 % of control

CCCC(O)(CCC)CC1=NC(C)(C)CO1
inactive: dose: 100.0 mg/kg/injection, schedule: Q04DX003 (ip), vehicle: saline sonified 87 % of control | dose: 200.0 mg/kg/injection, schedule: Q04DX003 (ip), vehicle: saline sonified 98 % of control | dose: 400.0 mg/kg/injection, schedule: Q04DX003 (ip), vehicle: saline sonified 95 % of control

O=CN/N=C/c1ccc2c(c1)CCC2
inactive: [11] 97 % of control | [12] 102 % of control | dose: 400.0 mg/kg/injection, schedule: Q01DX009 (ip), vehicle: saline with Tween-80 98 % of control

C1CCC2(CC1)SC1(CCCCC1)SC1(CCCCC1)S2
inactive: dose: 100.0 mg/kg/injection, schedule: Q01DX009 (ip), vehicle: other 94 % of control | [8] 95 % of control | dose: 200.0 mg/kg/injection, schedule: Q01DX009 (ip), vehicle: other 95 % of control | [9] 97 % of control | dose: 400.0 mg/kg/injection, schedule: Q01DX009 (ip), vehicle: other 92 % of control | [10] 97 % of control

OCCCCCCN=Cc1ccccc1O.OCCCCCCN=Cc1ccccc1O.[Cu]
inactive: dose: 9.5 mg/kg/injection, schedule: Q01DX001 (ip), vehicle: other 95 % of control | dose: 19.0 mg/kg/injection, schedule: Q01DX001 (ip), vehicle: other 100 % of control and 92 % of control | dose: 19.0 mg/kg/injection, schedule: Q01DX009 (ip), vehicle: other 93 % of control | dose: 38.0 mg/kg/injection, schedule: Q01DX001 (ip), vehicle: other 94 % of control and 95 % of control | dose: 38.0 mg/kg/injection, schedule: Q01DX009 (ip), vehicle: other 95 % of control | dose: 75.0 mg/kg/injection, schedule: Q01DX001 (ip), vehicle: other 95 % of control and 102 % of control | dose: 75.0 mg/kg/injection, schedule: Q01DX009 (ip), vehicle: other 96 % of control

CCCCn1c(=O)cc(C(=O)O)c2ccccc21
inactive: [6] 101 % of control | [7] 101 % of control | [19] 95 % of control

CCCNc1ncnc2c1cnn2C
inactive: [16] 124 % of control | [1] 100 % of control | [2] 107 % of control | [17] 102 % of control | [3] 104 % of control | [18] 103 % of control

Clc1ccc2c(c1)Nc1ccccc1S2
inactive: [13] 88 % of control | [21] 94 % of control | [14] 95 % of control | [22] 98 % of control | [15] 96 % of control | [23] 100 % of control

CN1CCC2CCCCC2C1Cc1ccc(CC2C3CCCCC3CCN2C)cc1 (configuration not stated)
inactive: dose: 2.5 mg/kg/injection, schedule: Q01DX001 (ip), vehicle: carboxymethylcellulose (CMC) 96 % of control | dose: 5.0 mg/kg/injection, schedule: Q01DX001 (ip), vehicle: carboxymethylcellulose (CMC) 96 % of control

Nc1nc(-c2ccccc2)c(CC(=O)O)s1
inactive: [21] 93 % of control | [22] 100 % of control | [23] 96 % of control

CC[N+](C)(C)CCCNC(=O)C12CC3CC(CC(C3)C1)C2
inactive: dose: 25.0 mg/kg/injection, schedule: Q04DX002 (ip), vehicle: saline 99 % of control | dose: 50.0 mg/kg/injection, schedule: Q04DX002 (ip), vehicle: saline 96 % of control

CCOP(=O)(Cc1ccc(CP(=O)(OCC)OCC)cc1)OCC
inactive: [17] 105 % of control | [18] 97 % of control | [20] 101 % of control
